From ChEMBL document CHEMBL2413072, “Synthesis and in vitro anticancer studies of novel C-2 arylidene congeners of lantadenes” (2013)

How the values were obtained:
Type in all cases: functional
M14 = assay: Growth inhibition of human M14 cells assessed as cell growth at 10^-4 M by sulforhodamine B assay; conditions: read-out: Activity
[1] = Growth inhibition of human HCC2998 cells assessed as cell growth at 10^-8 M by sulforhodamine B assay; conditions: HCC 2998, read-out: Activity
MDA-MB-468 [2] = assay: Growth inhibition of human MDA-MB-468 cells assessed as cell growth at 10^-8 M by sulforhodamine B assay; conditions: read-out: Activity
HOP-62 [3] = assay: Growth inhibition of human HOP62 cells by sulforhodamine B assay
SK-OV-3 = assay: Growth inhibition of human SKOV3 cells assessed as cell growth at 10^-4 M by sulforhodamine B assay; conditions: read-out: Activity
SN12C [4] = assay: Growth inhibition of human SN12C cells assessed as cell growth at 10^-4 M by sulforhodamine B assay; conditions: read-out: Activity
BT-549 = assay: Growth inhibition of human BT549 cells by sulforhodamine B assay
CCRF-CEM = assay: Growth inhibition of human CCRF-CEM cells assessed as cell growth at 10^-8 M by sulforhodamine B assay; conditions: read-out: Activity
OVCAR-3 [5] = assay: Growth inhibition of human OVCAR3 cells assessed as cell growth at 10^-6 M by sulforhodamine B assay; conditions: read-out: Activity
SK-MEL-5 = assay: Growth inhibition of human SK-MEL-5 cells by sulforhodamine B assay
U-251 = assay: Growth inhibition of human U251 cells by sulforhodamine B assay
MDA-MB-435 [6] = assay: Growth inhibition of human MDA-MB-435 cells assessed as cell growth at 10^-4 M by sulforhodamine B assay; conditions: read-out: Activity
K562 [7] = assay: Growth inhibition of human K562 cells assessed as cell growth at 10^-8 M by sulforhodamine B assay; conditions: read-out: Activity
MDA-MB-468 [8] = assay: Growth inhibition of human MDA-MB-468 cells by sulforhodamine B assay
UACC-257 = assay: Growth inhibition of human UACC257 cells assessed as cell growth at 10^-8 M by sulforhodamine B assay; conditions: read-out: Activity
HOP-62 [9] = assay: Growth inhibition of human HOP62 cells assessed as cell growth at 10^-7 M by sulforhodamine B assay; conditions: read-out: Activity
PC-3 = assay: Growth inhibition of human PC3 cells assessed as cell growth at 10^-6 M by sulforhodamine B assay; conditions: read-out: Activity
SNB-19 [10] = assay: Growth inhibition of human SNB19 cells by sulforhodamine B assay
Malme-3M [11] = assay: Growth inhibition of human MALME-3M cells assessed as cell growth at 10^-4 M by sulforhodamine B assay; conditions: read-out: Activity
SK-MEL-2 = assay: Growth inhibition of human SK-MEL-2 cells assessed as cell growth at 10^-7 M by sulforhodamine B assay; conditions: read-out: Activity
MDA-MB-435 [12] = assay: Growth inhibition of human MDA-MB-435 cells assessed as cell growth at 10^-6 M by sulforhodamine B assay; conditions: read-out: Activity
NCI-H522 = assay: Growth inhibition of human NCI-H522 cells assessed as cell growth at 10^-7 M by sulforhodamine B assay; conditions: read-out: Activity
[13] = Growth inhibition of human Hs 578T cells assessed as cell growth at 10^-8 M by sulforhodamine B assay; conditions: read-out: Activity
SF-295 = assay: Growth inhibition of human SF295 cells assessed as cell growth at 10^-4 M by sulforhodamine B assay; conditions: read-out: Activity
Malme-3M [14] = assay: Growth inhibition of human MALME-3M cells assessed as cell growth at 10^-8 M by sulforhodamine B assay; conditions: read-out: Activity
IGROV-1 = assay: Growth inhibition of human IGROV1 cells by sulforhodamine B assay
SNB-19 [15] = assay: Growth inhibition of human SNB19 cells assessed as cell growth at 10^-7 M by sulforhodamine B assay; conditions: read-out: Activity
ACHN = assay: Growth inhibition of human ACHN cells assessed as cell growth at 10^-4 M by sulforhodamine B assay; conditions: read-out: Activity
SN12C [16] = assay: Growth inhibition of human SN12C cells by sulforhodamine B assay
HCT-15 = assay: Growth inhibition of human HCT15 cells assessed as cell growth at 10^-6 M by sulforhodamine B assay; conditions: read-out: Activity
K562 [17] = assay: Growth inhibition of human K562 cells by sulforhodamine B assay
SN12C [18] = assay: Growth inhibition of human SN12C cells assessed as cell growth at 10^-6 M by sulforhodamine B assay; conditions: read-out: Activity
OVCAR-3 [19] = assay: Growth inhibition of human OVCAR3 cells assessed as cell growth at 10^-4 M by sulforhodamine B assay; conditions: read-out: Activity
SNB-19 [20] = assay: Growth inhibition of human SNB19 cells assessed as cell growth at 10^-8 M by sulforhodamine B assay; conditions: read-out: Activity
[21] = Growth inhibition of human HCC2998 cells assessed as cell growth at 10^-4 M by sulforhodamine B assay; conditions: HCC 2998, read-out: Activity
MDA-MB-231 = assay: Growth inhibition of human MDA-MB-231 cells assessed as cell growth at 10^-4 M by sulforhodamine B assay; conditions: read-out: Activity
MDA-MB-468 [22] = assay: Growth inhibition of human MDA-MB-468 cells assessed as cell growth at 10^-7 M by sulforhodamine B assay; conditions: read-out: Activity
NCI-H226 = assay: Growth inhibition of human NCI-H226 cells assessed as cell growth at 10^-6 M by sulforhodamine B assay; conditions: read-out: Activity
MOLT-4 = assay: Growth inhibition of human MOLT4 cells assessed as cell growth at 10^-8 M by sulforhodamine B assay; conditions: read-out: Activity
[23] = read-out: LC50 (the source's name)
[24] = read-out: pLC50 (the source's name) (converted)

CC(C)=CC(=O)O[C@@H]1CC(C)(C)C[C@H]2C3=CC[C@@H]4[C@@]5(C)CCC(=O)C(C)(C)[C@@H]5CC[C@@]4(C)[C@]3(C)CC[C@@]12C(=O)O
growth at 100 µM (M14): -62% | growth at 0.01 µM [1]: 97% | growth at 0.01 µM (MDA-MB-468 [2]): 92% | GI50 (HOP-62 [3]; read-out: GI50): 9.26 µM | LC50 (concentration killing 50% of cells) (HOP-62 [3]; read-out: LC50): > 100 µM | TGI (HOP-62 [3]; read-out: TGI): 49.8 µM | GI50 (HOP-62 [3]; read-out: pGI50 (converted)): 9.33 µM | LC50 (concentration killing 50% of cells) (HOP-62 [3]; read-out: pLC50 (converted)): > 100 µM | TGI (HOP-62 [3]; read-out: pTGI (converted)): 50.1 µM | growth at 100 µM (SK-OV-3): 15% | growth at 100 µM (SN12C [4]): -38% | GI50 (BT-549; read-out: GI50): 4.79 µM | CC50 (BT-549; [23]): > 100 µM | TGI (BT-549; read-out: TGI): 25 µM | GI50 (BT-549; read-out: pGI50 (converted)): 4.79 µM | CC50 (BT-549; [24]): > 100 µM | TGI (BT-549; read-out: pTGI (converted)): 25.1 µM | growth at 0.01 µM (CCRF-CEM): 104% | growth at 1 µM (OVCAR-3 [5]): 84% | GI50 (SK-MEL-5; read-out: GI50): 1.5 µM | CC50 (SK-MEL-5; [23]): 46.2 µM | TGI (SK-MEL-5; read-out: TGI): 11.7 µM | GI50 (SK-MEL-5; read-out: pGI50 (converted)): 1.51 µM | CC50 (SK-MEL-5; [24]): 45.7 µM | TGI (SK-MEL-5; read-out: pTGI (converted)): 11.7 µM | GI50 (U-251; read-out: GI50): 2.9 µM | CC50 (U-251; [23]): > 100 µM | TGI (U-251; read-out: TGI): 20.7 µM | GI50 (U-251; read-out: pGI50 (converted)): 2.88 µM | CC50 (U-251; [24]): > 100 µM | TGI (U-251; read-out: pTGI (converted)): 20.9 µM | growth at 100 µM (MDA-MB-435 [6]): 1% | growth at 0.01 µM (K562 [7]): 116% | GI50 (MDA-MB-468 [8]; read-out: GI50): 2.27 µM | CC50 (MDA-MB-468 [8]; [23]): > 100 µM | TGI (MDA-MB-468 [8]; read-out: TGI): 13.7 µM | GI50 (MDA-MB-468 [8]; read-out: pGI50 (converted)): 2.29 µM | CC50 (MDA-MB-468 [8]; [24]): > 100 µM | TGI (MDA-MB-468 [8]; read-out: pTGI (converted)): 13.8 µM | growth at 0.01 µM (UACC-257): 88% | growth at 0.1 µM (HOP-62 [9]): 97% | growth at 1 µM (PC-3): 56% | GI50 (SNB-19 [10]; read-out: GI50): 4.25 µM | CC50 (SNB-19 [10]; [23]): > 100 µM | TGI (SNB-19 [10]; read-out: TGI): > 100 µM | GI50 (SNB-19 [10]; read-out: pGI50 (converted)): 4.27 µM | CC50 (SNB-19 [10]; [24]): > 100 µM | TGI (SNB-19 [10]; read-out: pTGI (converted)): > 100 µM | growth at 100 µM (Malme-3M [11]): -5% | growth at 0.1 µM (SK-MEL-2): 94% | growth at 1 µM (MDA-MB-435 [12]): 92% | growth at 0.1 µM (NCI-H522): 92% | growth at 0.01 µM [13]: 96% | growth at 100 µM (SF-295): -59% | growth at 0.01 µM (Malme-3M [14]): 94% | GI50 (IGROV-1; read-out: GI50): 5.36 µM | CC50 (IGROV-1; [23]): > 100 µM | TGI (IGROV-1; read-out: TGI): 38.4 µM | GI50 (IGROV-1; read-out: pGI50 (converted)): 5.37 µM | CC50 (IGROV-1; [24]): > 100 µM | TGI (IGROV-1; read-out: pTGI (converted)): 38 µM | growth at 0.1 µM (SNB-19 [15]): 88% | growth at 100 µM (ACHN): -31% | GI50 (SN12C [16]; read-out: GI50): 3.12 µM | CC50 (SN12C [16]; [23]): > 100 µM | TGI (SN12C [16]; read-out: TGI): 21.8 µM | GI50 (SN12C [16]; read-out: pGI50 (converted)): 3.09 µM | CC50 (SN12C [16]; [24]): > 100 µM | TGI (SN12C [16]; read-out: pTGI (converted)): 21.9 µM | growth at 1 µM (HCT-15): 55% | GI50 (K562 [17]; read-out: GI50): 3.47 µM | LC50 (K562 [17]; read-out: LC50): > 100 µM | TGI (K562 [17]; read-out: TGI): > 100 µM | GI50 (K562 [17]; read-out: pGI50 (converted)): 3.47 µM | LC50 (K562 [17]; read-out: pLC50 (converted)): > 100 µM | TGI (K562 [17]; read-out: pTGI (converted)): > 100 µM | growth at 1 µM (SN12C [18]): 80% | growth at 100 µM (OVCAR-3 [19]): -73% | growth at 0.01 µM (SNB-19 [20]): 98% | growth at 100 µM [21]: -68% | growth at 100 µM (MDA-MB-231): -64% | growth at 0.1 µM (MDA-MB-468 [22]): 89% | growth at 1 µM (NCI-H226): 81% | growth at 0.01 µM (MOLT-4): 107%
